Laboratory results: patent US9149038B2, “4-amino-6-(heterocyclic)picolinates and 6-amino-2-(heterocyclic)pyrimidine-4-carboxylates and their use as herbicides” (Dow AgroSciences LLC, priority 2013, dated 2015)
Like-named read-outs stand apart in the source and are kept apart here.

Assays:
[1] = system: Key Broadleaf Weed and Crop Species; assay: Post-Emergent Test II: postemergent herbicidal activity, visual rating after 14 d (Table 7); format: in vivo; conditions: post-emergence, 336 h; for pest or weed control at 35 g/ha: 35 g ai/ha; for pest or weed control at 70 g/ha: 70 g ai/ha; for pest or weed control at 140 g/ha: 140 g ai/ha
Procedure, shortened: (§1)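 Greenhouse-grown plants at the first or second true leaf stage (7-21 d, ~15 h photoperiod, 23-29° C day) were sprayed with compound in acetone/DMSO-based aqueous spray containing crop oil concentrate and Triton X-155 at 187 L/ha. Injury versus untreated plants was rated visually after 14 d on a 0-100 scale.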

[2] = system: Key Grass and Sedge Weeds as well as Grass Crops; assay: Post-Emergent Test II: postemergent herbicidal activity, visual rating after 14 d (Table 8); format: in vivo; conditions: post-emergence, 336 h; for pest or weed control at 35 g/ha: 35 g ai/ha; for pest or weed control at 70 g/ha: 70 g ai/ha; for pest or weed control at 140 g/ha: 140 g ai/ha
Procedure, shortened: as §1

[3] = ABUTH: velvetleaf (Abutilon theophrasti), read-out: Visual Growth Reduction (%) 14 Days After Application ABUTH
[4] = AMARE: redroot pigweed (Amaranthus retroflexus), read-out: Visual Growth Reduction (%) 14 Days After Application AMARE
[5] = BRSNN: oilseed rape, canola (Brassica napus), read-out: Visual Growth Reduction (%) 14 Days After Application BRSNN
[6] = CHEAL: lambsquarters (Chenopodium album), read-out: Visual Growth Reduction (%) 14 Days After Application CHEAL
[7] = EPHHL: wild poinsettia (Euphorbia heterophylla), read-out: Visual Growth Reduction (%) 14 Days After Application EPHHL
[8] = HELAN: sunflower (Helianthus annuus), read-out: Visual Growth Reduction (%) 14 Days After Application HELAN
[9] = barnyardgrass (Echinochloa crus-galli), read-out: Visual Growth Reduction (%) 14 Days After Application, ECHCG
[10] = giant foxtail (Setaria faberi), read-out: Visual Growth Reduction (%) 14 Days After Application, SETFA
[11] = maize, corn (Zea mays), read-out: Visual Growth Reduction (%) 14 Days After Application, ZEAMX
[12] = rice (Oryza sativa), read-out: Visual Growth Reduction (%) 14 Days After Application, ORYSA
[13] = wheat, spring (Triticum aestivum), read-out: Visual Growth Reduction (%) 14 Days After Application, TRZAS
[14] = yellow nutsedge (Cyperus esculentus), read-out: Visual Growth Reduction (%) 14 Days After Application, CYPES

Structure (SMILES): COC(=O)c1nc(-c2ccc3c(c2)SCO3)c(F)c(N)c1Cl [Compound 105]
- pest or weed control at 35 g/ha [1, 3]: 0 to 29%
- pest or weed control at 70 g/ha [1, 3]: 0 to 29%
- pest or weed control at 140 g/ha [1, 3]: 0 to 29%
- pest or weed control at 35 g/ha [1, 4]: 0 to 29%
- pest or weed control at 70 g/ha [1, 4]: 0 to 29%
- pest or weed control at 140 g/ha [1, 4]: 45 to 59%
- pest or weed control at 35 g/ha [1, 5]: 0 to 29%
- pest or weed control at 70 g/ha [1, 5]: 30 to 44%
- pest or weed control at 140 g/ha [1, 5]: 60 to 74%
- pest or weed control at 35 g/ha [1, 6]: 30 to 44%
- pest or weed control at 70 g/ha [1, 6]: 30 to 44%
- pest or weed control at 140 g/ha [1, 6]: 60 to 74%
- pest or weed control at 35 g/ha [1, 7]: 60 to 74%
- pest or weed control at 70 g/ha [1, 7]: 75 to 84%
- pest or weed control at 140 g/ha [1, 7]: 85 to 94%
- pest or weed control at 35 g/ha [1, 8]: 85 to 94%
- pest or weed control at 70 g/ha [1, 8]: 85 to 94%
- pest or weed control at 140 g/ha [1, 8]: 95 to 100%
- pest or weed control at 35 g/ha [2, 9]: 45 to 59%
- pest or weed control at 70 g/ha [2, 9]: 60 to 74%
- pest or weed control at 140 g/ha [2, 9]: 75 to 84%
- pest or weed control at 35 g/ha [2, 10]: 0 to 29%
- pest or weed control at 70 g/ha [2, 10]: 0 to 29%
- pest or weed control at 140 g/ha [2, 10]: 30 to 44%
- pest or weed control at 35 g/ha [2, 11]: 0 to 29%
- pest or weed control at 70 g/ha [2, 11]: 0 to 29%
- pest or weed control at 140 g/ha [2, 11]: 0 to 29%
- pest or weed control at 35 g/ha [2, 12]: 0 to 29%
- pest or weed control at 70 g/ha [2, 12]: 0 to 29%
- pest or weed control at 140 g/ha [2, 12]: 0 to 29%
- pest or weed control at 35 g/ha [2, 13]: 0 to 29%
- pest or weed control at 70 g/ha [2, 13]: 0 to 29%
- pest or weed control at 140 g/ha [2, 13]: 0 to 29%
- pest or weed control at 35 g/ha [2, 14]: 0 to 29%
- pest or weed control at 70 g/ha [2, 14]: 0 to 29%
- pest or weed control at 140 g/ha [2, 14]: 0 to 29%
